Test results: ChEMBL document CHEMBL5390320, “Discovery of a Novel Benzodiazepine Series of Cbl-b Inhibitors for the Enhancement of Antitumor Immunity” (ACS Med Chem Lett, 2023)

How the values were obtained:
[1] = Lipophilicity, log D of the compound in octanol and sodium phosphate buffer at pH 7.4 incubated for 3 hrs under shaking condition by shake flask method based LC-MS/MS analysis; format: physicochemical
[2] = biological target: T1, E3 ubiquitin-protein ligase CBL-B (Homo sapiens, UniProt Q13191); assay: Displacement of FAM-labeled probe from recombinant biotinylated Cbl-b (unknown origin) expressed in Escherichia coli BL21(DE3) Tuner cells by TR-FRET assay
[3] = biological target: T1, E3 ubiquitin-protein ligase CBL-B; assay: Inhibition of Cbl-b in cryo-preserved human CD3-positive T cells assessed as increase in IL-2 production preincubated for 1 hr followed by alpha-CD3 coated stimulation for 24 hrs by flow cytometry method; format: cell-based, CD3-positive T cell
[4] = biological target: T1, E3 ubiquitin-protein ligase CBL-B; assay: Inhibition of recombinant Cbl-b (unknown origin) ubiquitination incubated for 60 mins in presence of ATP by TR-FRET assay
[5] = biological target: T2, Cholecystokinin receptor type A (Homo sapiens, UniProt P32238); assay: Displacement of […] from human CCKA receptor expressed in CHO cell membrane incubated for 60 mins by scintillation counter method; format: toxicity, cell membranes
T2 sequence (P32238 whole entry): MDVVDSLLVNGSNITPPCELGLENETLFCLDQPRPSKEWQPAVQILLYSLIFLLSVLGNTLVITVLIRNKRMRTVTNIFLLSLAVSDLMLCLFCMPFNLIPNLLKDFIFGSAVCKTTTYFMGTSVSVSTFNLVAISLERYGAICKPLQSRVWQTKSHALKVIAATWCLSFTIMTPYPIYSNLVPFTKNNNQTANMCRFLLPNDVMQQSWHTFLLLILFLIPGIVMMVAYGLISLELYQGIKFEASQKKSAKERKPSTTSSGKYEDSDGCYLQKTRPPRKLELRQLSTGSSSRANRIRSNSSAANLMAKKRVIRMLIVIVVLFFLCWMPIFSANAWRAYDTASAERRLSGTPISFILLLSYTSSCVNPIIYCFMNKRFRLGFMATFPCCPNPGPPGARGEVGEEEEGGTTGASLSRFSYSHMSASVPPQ

[6] = biological target: T1, E3 ubiquitin-protein ligase CBL-B; assay: Inhibition of recombinant Cbl-b (unknown origin) mediated ZAP70 ubiquitination incubated for 60 mins by TR-FRET assay
[7] = biological target: T1, E3 ubiquitin-protein ligase CBL-B; assay: Binding affinity to avidin-biotinylated Cbl-b at (36 to 427 residues) (unknown origin) assessed as dissociation constant by SPR analysis

T1 sequence (Q13191 whole entry): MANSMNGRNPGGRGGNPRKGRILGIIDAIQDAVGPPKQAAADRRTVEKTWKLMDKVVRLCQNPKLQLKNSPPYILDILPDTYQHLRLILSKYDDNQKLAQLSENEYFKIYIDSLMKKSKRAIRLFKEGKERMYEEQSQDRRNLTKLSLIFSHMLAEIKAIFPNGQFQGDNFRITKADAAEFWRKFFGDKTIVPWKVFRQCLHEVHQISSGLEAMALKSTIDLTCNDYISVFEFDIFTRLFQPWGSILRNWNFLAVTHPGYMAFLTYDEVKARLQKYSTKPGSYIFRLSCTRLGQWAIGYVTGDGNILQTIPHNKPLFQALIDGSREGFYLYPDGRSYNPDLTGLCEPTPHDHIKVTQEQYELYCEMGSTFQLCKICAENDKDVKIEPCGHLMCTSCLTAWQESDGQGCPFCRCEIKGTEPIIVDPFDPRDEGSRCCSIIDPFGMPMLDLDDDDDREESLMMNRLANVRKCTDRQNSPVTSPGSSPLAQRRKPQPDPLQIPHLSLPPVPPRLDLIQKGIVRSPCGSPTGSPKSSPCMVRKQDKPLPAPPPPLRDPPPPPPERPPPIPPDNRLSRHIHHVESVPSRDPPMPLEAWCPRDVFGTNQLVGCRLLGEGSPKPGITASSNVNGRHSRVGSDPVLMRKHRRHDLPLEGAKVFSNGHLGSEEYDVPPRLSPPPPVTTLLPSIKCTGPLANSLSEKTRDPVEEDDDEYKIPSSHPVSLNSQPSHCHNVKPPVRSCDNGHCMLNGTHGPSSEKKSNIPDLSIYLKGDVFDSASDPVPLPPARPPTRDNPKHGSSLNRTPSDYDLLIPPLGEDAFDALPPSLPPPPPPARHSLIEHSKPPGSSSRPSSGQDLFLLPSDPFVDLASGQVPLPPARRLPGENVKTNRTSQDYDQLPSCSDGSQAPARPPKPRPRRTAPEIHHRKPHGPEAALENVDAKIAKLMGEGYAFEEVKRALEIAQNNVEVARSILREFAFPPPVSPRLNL

SMILES | logD at 3 h [1] | IC50 [2] | further results
O=C(NC1N=C(c2cc[nH]c(=O)c2)c2ccccc2NC1=O)c1ccccc1CN1CCOCC1 (racemic) | 1.7 | 11000 nM | 
O=C(N[C@H]1N=C(c2ccccc2)c2ccccc2NC1=O)c1ccccc1CN1CCOCC1 | 3.9 | 94 nM | 
C[C@H]1CN(Cc2ccccc2C(=O)N[C@H]2N=C(c3ccccc3)c3ccncc3NC2=O)CCO1 | 3.3 | 15 nM | EC50 [3]: 410 nM; IC50 [4]: 50500 nM; Ki [5]: > 100000 nM; IC50 [6]: 37200 nM
O=C(NC1N=C(c2ccccc2)c2ccccc2NC1=O)c1sccc1CN1CCOCC1 (racemic) | 3.3 | 360 nM | 
COCCNC(=O)c1ccc2c(c1)NC(=O)[C@@H](NC(=O)c1ccccc1CN1CCO[C@@H](C)C1)N=C2c1ccccc1 | 3.7 | 13 nM | EC50 [3]: 2610 nM; Ki [5]: 24300 nM
C[C@H]1COCCN1Cc1ccccc1C(=O)NC1N=C(c2ccccc2)c2ccccc2NC1=O (mixture of isomers) | 4 | 1900 nM | 
C[C@H]1CN(Cc2ccccc2C(=O)N[C@H]2N=C(c3ccccc3)c3ccc(C(=O)N4CCN(C)C(=O)C4)cc3NC2=O)CCO1 | 2.5 | 13 nM | EC50 [3]: 1650 nM; Ki [5]: > 100000 nM
C[C@H]1CCCN(Cc2cc3c(c(C(F)(F)F)c2)CN(c2cccc([C@]4(c5nncn5C)C[C@@H](C)C4)c2)C3=O)C1 |  | 9 nM | Kd [7]: 3 nM
C[C@@H]1CN(Cc2ccccc2C(=O)N[C@H]2N=C(c3ccccc3)c3ccccc3NC2=O)CCO1 | 4.1 | 10 nM | EC50 [3]: > 30000 nM; Ki [5]: 2630 nM
O=C(NC1N=C(c2ccccc2)c2ccccc2NC1=O)c1ccccc1CN1CCn2nccc2C1 (racemic) | 3.9 | 710 nM | 
O=C(NC1N=C(c2ccccc2)c2ccccc2NC1=O)c1ccoc1CN1CCOCC1 (racemic) | 3.1 | 1500 nM | 
Cn1ncc2c1CN(Cc1ccccc1C(=O)NC1N=C(c3ccccc3)c3ccccc3NC1=O)C2 (racemic) | 3.8 | 350 nM | 
O=C(NC1N=C(c2ccccc2)c2ccccc2NC1=O)c1ccccc1N1CCOCC1 (racemic) |  | > 100000 nM | 
CC1(C)CN(Cc2ccccc2C(=O)NC2N=C(c3ccccc3)c3ccccc3NC2=O)CCO1 (racemic) | 4.3 | 3900 nM | 
O=C(N[C@@H]1N=C(c2ccccc2)c2ccccc2NC1=O)c1ccccc1CN1CCOCC1 | 3.9 | 8000 nM | 
O=C(NC1N=C(c2ccc[nH]c2=O)c2ccccc2NC1=O)c1ccccc1CN1CCOCC1 (racemic) | 1.2 | 20000 nM | 
C[C@@H]1COCCN1Cc1ccccc1C(=O)NC1N=C(c2ccccc2)c2ccccc2NC1=O (mixture of isomers) | 3.9 | 4800 nM | 
C[C@@H]1CN(Cc2ccccc2C(=O)NC2N=C(c3ccccc3)c3ccccc3NC2=O)C[C@H](C)O1 (mixture of isomers) | 4.3 | 1800 nM | 
C[C@H]1CN(Cc2ccccc2C(=O)NC2N=C(c3ccccc3)c3ccccc3NC2=O)CCO1 (mixture of isomers) | 4.2 | 26 nM | 
O=C(NC1N=C(c2ccccc2)c2ccccc2NC1=O)c1cnccc1CN1CCOCC1 (racemic) | 2.7 | 1300 nM | 
C[C@@H]1CN(Cc2ccccc2C(=O)NC2N=C(c3ccccc3)c3ccccc3NC2=O)CCO1 (mixture of isomers) | 4.1 | 31 nM | 
O=C(NC1N=C(c2ccccc2)c2ccccc2NC1=O)c1ccccc1CN1CCCCC1 (racemic) |  | > 100000 nM | 
O=C(NC1N=C(c2ccncc2)c2ccccc2NC1=O)c1ccccc1CN1CCOCC1 (racemic) | 2.6 | 2000 nM | 
C[C@H]1CN(Cc2ccccc2C(=O)N[C@H]2N=C(c3ccccc3)c3ccccc3NC2=O)CCO1 | 4.1 | 13 nM | EC50 [3]: 14000 nM; Ki [5]: 3720 nM
O=C(NC1N=C(c2ccccc2)c2ccccc2NC1=O)c1ccccc1CN1CCn2nncc2C1 (racemic) | 2.9 | 300 nM | 
O=C(NC1N=C(c2ccccc2)c2ccccc2NC1=O)c1ccccc1CN1CCOCC1 (racemic) | 3.8 | 210 nM | Kd [7]: 400 nM
